Data on two compounds can be found in patent publication US10266506B2, “Compounds for use in imaging, diagnosing and/or treatment of diseases of the central nervous system or of tumors” (PIRAMAL IMAGING SA, priority 2007, dated 2019).

Each structure is given as a SMILES string. “Also recorded” adds a separate entry of the source.

One data set has as its target T1, MAO B (Homo sapiens, UniProt P27338).
T1 construct: Autoradiography using [^18F]compound 13 on human brain slices from four brains from patients with diagnosis of Alzheimer's disease; from tissue; host or cells: human brain sections (Alzheimer's disease patients and normal controls), 18 µm cryosections
T1 sequence (P27338 1-520): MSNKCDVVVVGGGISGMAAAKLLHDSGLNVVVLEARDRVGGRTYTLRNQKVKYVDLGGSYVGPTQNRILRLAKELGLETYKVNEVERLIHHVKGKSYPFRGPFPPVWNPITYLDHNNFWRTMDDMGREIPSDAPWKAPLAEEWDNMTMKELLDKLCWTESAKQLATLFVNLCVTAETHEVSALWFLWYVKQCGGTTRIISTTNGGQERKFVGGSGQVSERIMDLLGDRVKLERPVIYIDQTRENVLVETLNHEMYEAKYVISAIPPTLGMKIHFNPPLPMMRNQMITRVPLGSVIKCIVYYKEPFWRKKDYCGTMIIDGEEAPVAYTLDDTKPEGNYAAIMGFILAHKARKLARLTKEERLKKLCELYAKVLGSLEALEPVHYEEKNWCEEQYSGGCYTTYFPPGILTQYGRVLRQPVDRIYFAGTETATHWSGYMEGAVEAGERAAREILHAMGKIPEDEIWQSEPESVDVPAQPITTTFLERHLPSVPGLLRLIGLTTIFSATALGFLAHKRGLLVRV
The experiment in a line: Autoradiography with [18F]compound 13 on human brain sections (Alzheimer's disease), blocking with MAO B inhibitors. It is filed as binding. The protocol: (§1) Thereafter, the slides were removed and brought to room temperature. […] The sections were dipped two times into ice cold distilled water, dried at room temperature and exposed to PhosphorImanger plates (FUJI BAS 5000) over night. For detection of the specificity of the signals an excess (10 μM) of Deprenyl, Pargylin (both for MAO B) and Clorgyline (for MAO A), respectively, was used. After exposure, the sections were immunohistochemically stained using a standard protocol with an anti-GFAP antibody to detect reactive astrocytes. Amyloid β plaques were detected with BAY 949172 (Rowe C C et al. Lancet Neutol 2008; 7: 129-135) using the binding protocol as described above.
FIG. 1A Autoradiographic signal after exposure on the PhosphorImager plate.
FIG. 2A Autoradiographic signal after exposure on the PhosphorImager plate.

Data set [1] in a line: Biodistribution in NMRI mice (gamma counter). It is filed as in vivo. On the procedure: For each time point 3 mice have been used. The mice were injected each with 0.178 MBq[^18F]compound 13. After the respective time points the mice were sacrificed, the organs taken out and measured in a gamma counter. The results were decay corrected.
Data set [2] is described as follows: Plasma radioactivity and plasma metabolites after injection in a cynomolgus monkey. The note with it: compared with [11C]Deprenyl (and compound 5). The text has this: Plasma radioactivity profiles have been monitored over time. […] In addition, metabolites occurring in plasma over time have been monitored (FIGS. 8 and 9) for both ligands.
A further data set has as its target T2, MAO A (Homo sapiens, UniProt P21397).
T2 construct: Autoradiography using [^18F]compound 13 on human brain slices from four brains from patients with diagnosis of Alzheimer's disease; from tissue; host or cells: human brain sections (Alzheimer's disease patients), 18 µm cryosections
T2 sequence (P21397 1-527): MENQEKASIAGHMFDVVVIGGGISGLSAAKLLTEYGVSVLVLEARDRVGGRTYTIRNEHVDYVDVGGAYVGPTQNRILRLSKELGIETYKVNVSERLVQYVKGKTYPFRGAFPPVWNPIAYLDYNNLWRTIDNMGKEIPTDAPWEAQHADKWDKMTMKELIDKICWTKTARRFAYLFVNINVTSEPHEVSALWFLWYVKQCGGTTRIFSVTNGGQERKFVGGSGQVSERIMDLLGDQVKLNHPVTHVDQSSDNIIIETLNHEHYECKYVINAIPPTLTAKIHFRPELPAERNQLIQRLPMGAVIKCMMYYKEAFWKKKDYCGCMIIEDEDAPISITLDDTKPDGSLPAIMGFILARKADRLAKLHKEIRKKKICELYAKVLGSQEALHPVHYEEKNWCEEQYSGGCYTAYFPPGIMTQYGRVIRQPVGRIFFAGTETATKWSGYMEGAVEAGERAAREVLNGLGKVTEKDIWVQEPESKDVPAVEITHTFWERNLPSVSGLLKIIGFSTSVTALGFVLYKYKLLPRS
Nature of the data set: Autoradiography with [18F]compound 13 on human brain sections, blocking with MAO A inhibitor clorgyline. It is filed as binding. The conditions noted are these: human AD brain slices; excess (10 μM) of Clorgyline. The protocol: as §1
FIG. 2A Autoradiographic signal after exposure on the PhosphorImager plate. Note the black dots in the tissue slices corresponding to areas with amyloid β plaques (see examples in FIG. 3).

Data set [3] can be described thus: PET brain uptake (time activity curves, SUV) in a cynomolgus monkey. The class given is in vivo. The conditions noted are these: e.g. striatum.
The conditions of data set [4]: literature report; cited from earlier work.

As to `C#CCN(C)[C@H](C[18F])Cc1ccccc1` [[^18F]compound 13, N-[(2S)-1-(^18F)fluoro-3-phenylpropan-2-yl]-N-methylprop-2-yn-1-amine], at MAO B (human AD brain slice, GFAP immunoreactivity), the “correspondence of autoradiographic signal to reactive astrocytes” value is “correspondence of the autoradiographic signal to reactive astrocytes is demonstrated”. Further, the “relation of autoradiographic signal to amyloid β plaque load” value at MAO B (human AD brain slices, amyloid detected with BAY 949172) is “the signal density and intensity corresponds with the amyloid β plaque load”. In addition, the “blocking of autoradiographic signal by MAO B inhibitors (specificity for MAO B)” value on MAO B (human AD brain slices, excess (10 μM) of Deprenyl or Pargylin) was “the signals could be blocked with deprenyl and pargylin; also recorded: the signals could be completely blocked with deprenyl”. Also, the “brain uptake of radioactivity” value in data set [1] (2 min p.i.) is recorded as 7.5±0.04 % ID/g. The figures for the brain radioactivity in data set [1] (30 min p.i.) and in data set [1] (after 4 hours) were 2.10±0.33 % ID/g and 1.34±0.26 % ID/g, respectively. Besides, the “in vivo metabolic stability” value in data set [2] is “improved metabolic stability; also recorded: more stable than [^11C]Deprenyl”. Moreover, the “blocking of autoradiographic signal by MAO A inhibitor clorgyline” value at MAO A was “not with clorgyline”. For the same compound, the “uptake and enrichment in specific regions, higher than [11C]Deprenyl” value in data set [3] is recorded as “about 10%”.
`C#CCN(C)CCCCCC[18F]` [compound 5]: in data set [4], the “degradation to metabolite (reported)” value is “degraded quickly towards a polar [^18F]-labelled metabolite”.
